Laboratory results: ChEMBL document CHEMBL1201862, “PubChem BioAssay data set” (2004)
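Five concentrations, 48 hours, 96-well plates. The concentration for 50% growth inhibition is given as GI50.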 Calls of active or inactive are those of the source. No stated cut-off is given here; in the data, active = GI50 up to about 1.1 µM and inactive = higher.

Assays:
Assay in all cases: NCI-60 cell line screen, 48 h
SK-OV-3 = test system: SK-OV-3
NCI-H460 = test system: NCI-H460
NCI-H23 = test system: NCI-H23
SNB-75 = test system: SNB-75
SNB-78 = test system: SNB-78
MOLT-4 = test system: MOLT-4
OVCAR-8 = test system: OVCAR-8
SW-620 = test system: SW-620
M14 = test system: M14
HL-60 = test system: HL-60
SF-539 = test system: SF-539
CCRF-CEM = test system: CCRF-CEM
K562 = test system: K562
IGROV-1 = test system: IGROV-1
UACC-62 = test system: UACC-62
M19-MEL = test system: M19-MEL
HOP-18 = test system: HOP-18
SN12C = test system: SN12C
COLO 205 = test system: COLO 205
SK-MEL-2 = test system: SK-MEL-2
HT-29 = test system: HT-29
U-251 = test system: U-251
NCI-H522 = test system: NCI-H522
ACHN = test system: ACHN
LOX IMVI = test system: LOX IMVI
LXFL 529 = test system: LXFL 529
SK-MEL-5 = test system: SK-MEL-5
SF-295 = test system: SF-295
UACC-257 = test system: UACC-257
RXF 393 = test system: RXF 393
TK-10 = test system: TK-10
HOP-92 = test system: HOP-92
SNB-19 = test system: SNB-19
A498 = test system: A498
SR = test system: SR
KM-20L2 = test system: KM-20L2
EKVX = test system: EKVX
DMS-273 = test system: DMS-273
SK-MEL-28 = test system: SK-MEL-28
DLD-1 = test system: DLD-1
UO-31 = test system: UO-31
A549 = test system: A549
OVCAR-3 = test system: OVCAR-3
KM12 = test system: KM12
HCC 2998 = test system: HCC 2998
RPMI-8226 = test system: RPMI-8226
XF498 = test system: XF498
OVCAR-5 = test system: OVCAR-5
OVCAR-4 = test system: OVCAR-4
SF-268 = test system: SF-268
786-0 = test system: 786-0
HCT-116 = test system: HCT-116

Measured: GI50

CN1Cc2cc3c(cc2-c2ccccc21)OCO3
inactive: SK-OV-3 > 10 µM | NCI-H460 > 100 µM | NCI-H23 > 100 µM | SNB-75 > 100 µM | SNB-78 > 100 µM | MOLT-4 > 100 µM | OVCAR-8 > 100 µM | SW-620 > 100 µM | M14 > 100 µM | HL-60 > 100 µM | SF-539 > 100 µM | CCRF-CEM > 100 µM | K562 > 100 µM | IGROV-1 > 100 µM | UACC-62 > 100 µM | M19-MEL > 100 µM | HOP-18 > 100 µM | SN12C > 100 µM | COLO 205 > 100 µM | SK-MEL-2 > 100 µM | HT-29 > 100 µM | U-251 > 100 µM | NCI-H522 > 100 µM | ACHN > 100 µM | LOX IMVI > 100 µM | LXFL 529 > 100 µM | SK-MEL-5 > 100 µM | SF-295 > 100 µM | UACC-257 > 100 µM | RXF 393 > 100 µM | TK-10 > 100 µM | HOP-92 > 100 µM | SNB-19 > 100 µM | A498 > 100 µM | SR > 100 µM | KM-20L2 91.6 µM | EKVX > 100 µM | DMS-273 > 100 µM | SK-MEL-28 > 100 µM | DLD-1 > 100 µM | UO-31 > 100 µM | A549 > 100 µM | OVCAR-3 > 100 µM | KM12 > 100 µM | HCC 2998 > 100 µM | RPMI-8226 > 100 µM | XF498 > 100 µM | OVCAR-5 > 100 µM | OVCAR-4 > 100 µM | SF-268 > 100 µM | 786-0 > 100 µM | HCT-116 > 100 µM
